In patent EP0702683B1, “06-SUBSTITUTED GUANINE DERIVATIVES, A PROCESS FOR THEIR PREPARATION AND THEIR USE IN TREATING TUMOUR CELLS” (Cancer Research Technology Limited, priority 1993, dated 1994):
Like-named read-outs stand apart in the source and are kept apart here.

What was measured:
[1] = test system: Raji cells; assay: Sensitization of Raji cells to BCNU (XTT assay); type: cell-based, human; conditions: for Raji sensitization (D90.^C/D90.^I) 1.0µM / Raji sensitization (D90.^C/D90.^I) O.1µM: BCNU, 2 hour pretreatment; for Raji sensitization (D90.^C/D90.^I) 1.0µM: inactivator 1.0µM; for Raji sensitization (D90.^C/D90.^I) O.1µM: inactivator O.1µM; for sensitizing Raji cells to the growth inhibitory effects of BCNU, compared with BeG: Figure 2, in words
Experimental: Following a 2 hour incubation at 37°C, medium containing either increasing doses of BCNU, temozolomide or equivalent vehicle was added and the cells allowed to grow for 6 days. At this time XTT solution was added and the cells incubated for a further 4 hours at 37°C. The resulting red/orange formazan reaction product was quantified by measuring absorption at 450nm on a microtitre platereader.

[2] = test system: A375M cells; assay: Sensitization of A375M cells to BCNU (MTT assay); type: cell-based, human; conditions: for A375M sensitization (D50.^C/D50.^I) 0.5uM: inactivator 0.5uM 2 hours before; for A375M sensitization (D50.^C/D50.^I) 5.0uM: inactivator 5.0uM 2 hours before
Experimental: Sensitization of A375M cells to the cytotoxic effects of BCNU was analysed by MTT assay ^24 differing from the XTT assay described above as follows. […] After 6 days MTT solution (4mg/ml) was added and cells incubated for 3 hours at 37°C. Medium was aspirated and the resulting purple formazan crystals were solubilised in DMSO (120μl) and cell viability was quantified by measuring absorption at 540nm using a microtitre plate reader.

[3] = Growth inhibition of V79 cells by inactivator alone; type: cell-based, Chinese hamster; conditions: chinese hamster, v79 cells, Figure 5
Experimental: (§1) In order to assess the effects on cell growth alone, Xeroderma pigmentosum cells and Chinese Hamster V79 cells were exposed to increasing concentrations (up to 600µM) of selected inactivators for 2h at 37°. In some cases, the inactivators were allowed to undergo hydrolysis at 37°C for 20 hours and then added to […] in order to assess the extent to which the decomposition products of the agents might inhibit cell growth. After 6 days the extent of cell growth was determined as described above.

[4] = Growth inhibition of Xeroderma pigmentosum cells by inactivator alone; type: cell-based, human; conditions: human, xeroderma pigmentosum cells; Figs 5 & 6; read-out: toxic concentrations in XP cells relative to those at which sensitization to BCNU was observed
Experimental: as §1

[5] = test system: XP cells; assay: as above; type: cell-based, human; conditions: inactivator alone, Figure 6, compared with V79 cells, in words
Experimental: as §1

[6] = target: T1, ATase (Homo sapiens, UniProt P16455); assay: Inactivation of ATase activity in XP cells; type: cell-based; parameters: endogenous in cells; host or cells: Raji
T1 sequence (P16455 1-207): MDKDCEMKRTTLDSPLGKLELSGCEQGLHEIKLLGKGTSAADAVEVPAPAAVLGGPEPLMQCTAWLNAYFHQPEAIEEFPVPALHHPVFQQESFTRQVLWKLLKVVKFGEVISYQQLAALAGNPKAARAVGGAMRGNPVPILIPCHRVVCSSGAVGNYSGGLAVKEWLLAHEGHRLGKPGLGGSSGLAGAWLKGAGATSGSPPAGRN
Experimental: Mammalian cells were cultured under standard conditions. For example, Raji (a human lymphoblastoid cell line from a Burkitt's lymphoma) cells were grown in suspension culture in RPMI medium supplemented with 10% horse serum. A375M cells are human melanoma cells from which the xenografts described below were established following subcutaneous injection into nude mice: WiDr cells are a human colon carcinoma cell line: Hamster+120 cells are a mitozolomide-selected subline of a Chinese hamster lung fibroblast V79 cell line called RJKO: Yoshida cells are a rat carcinosarcoma cell line and YRbus is a busulphan resistant subline thereof: XP cells are an SV40-transformed fibroblast cell line originally from the skin of a Xeroderma pigmentosum patient, pHMGhAT2b cells are a clone of these cells that have been transfected with a mammalian cell expression vector containing the human ATase cDNA and pHMGla cells are a clone that have been transfected with the expression vector only (i.e. one not containing the human ATase cDNA). Cell pellets were resuspended in cold (4°C) buffer I containing 2 µg/ml leupeptin and sonicated for 10 seconds at 12 µ peak to peak distance. After cooling in ice, the cells were sonicated for a further 10 seconds at 18 µ. […]

[7] = test system: ATase; assay: Depletion of ATase activity in A375 tumour xenografts; type: in vivo, nude mice; conditions: 30 mg/kg, 2 or 24 hours after administration, Fig. 8, in words
Experimental: (§2) 0X6 OPT, England (OLAC mice). […] For this reason lower doses were administered.
(§3) A375M (human melanoma) cells were grown in DMEM containing 10% fetal bovine serum. The cells were prepared for in vivo inoculation by incubation with 0.01% trypsin.
(§4) Cells (10^6) in 100µl of PBS were injected subcutaneously into the right-hand flank of 8-10 week old nu/nu athymic mice. These cells were allowed to develop into a tumour for 3-4 weeks for passaging into experimental animals. Tumour blocks measuring 2mm x 2mm x 2mm were implanted subcutaneously on the right hand flank. These animals were ready for use in inactivator experiments in 7-10 days.

[8] = test system: A375 tumour xenografts; assay: Sensitization of A375 tumour xenografts to BCNU (tumour volume); type: in vivo, nude mice; conditions: 30 or 60 mg/kg i.p. 60 - 90 minutes prior to 10 - 25 mg/kg BCNU, Figs. 9-13, in words
Experimental: as §2, §3, §4
Xenograft tumour measurements were taken every 1-2 days by workers using digital calipers. Tumour volume was calculated using the formula (h x w x 1) π/6. The experimental animals were also weighed every 1-2 days. Measurements continued until tumours in the control animals reached the maximum allowable volume (i.e. 1cm x 1cm x 1cm).

[9] = test system: human bone marrow cells; assay: Sensitization of bone marrow cells to temozolomide (GM-CFC assay); type: cell-based; conditions: for sensitization effect on human bone marrow cells to temozolomide, compared with 0^6-benzylguanine: 10µM inactivator, Figure 14, in words
Source text: For the granulocyte/macrophage colony-forming cell (GM-CFC) assay primary human bone marrow samples were obtained from patients undergoing cardiothoracic surgery. […] The colonies represented precursor cells of the granulocyte/macrophage lineage (huGM-CFC). Survival was expressed as a % of the number of colonies at zero dose temozolomide.

| Compound | Raji sensitization (D90.^C/D90.^I) 1.0µM [1] | Raji sensitization (D90.^C/D90.^I) O.1µM [1] | A375M sensitization (D50.^C/D50.^I) 0.5uM [2] | A375M sensitization (D50.^C/D50.^I) 5.0uM [2] | selectivity ratio ([3]; read-out: growth inhibitory dose in V79 cells relative to the I50 dose) | MCC at 2 h ([3]; inactivator alone, up to 600µM, 2h at 37°, read-out: doses producing some growth inhibition of V79 cells) [µM] | selectivity ratio [4] | susceptibility of XP cells to the growth inhibitory effects of the inactivator [5] | IC50 ([6]; Human XP cells, 2 hours at 37°C, read-out: Inactivation of ATase in Mammalian Cells I50(µM) Human XP) [µM] | sensitizing Raji cells to the growth inhibitory effects of BCNU, compared with BeG ([1]; 0.1uM inactivator) | sensitizing Raji cells to the growth inhibitory effects of BCNU, compared with BeG ([1]; 1.0uM inactivator) | A375M sensitization (D50.^C/D50.^I) 1.0uM ([2]; inactivator 1.0uM 2 hours before) | inactivating ATase in human melanoma xenografts grown in nude mice, compared with BeG [7] | reducing tumour volume / sensitising human melanoma xenografts to BCNU, compared with BeG [8] | sensitization effect on human bone marrow cells to temozolomide, compared with 0^6-benzylguanine ([9]; patient D) | sensitization effect on human bone marrow cells to temozolomide, compared with 0^6-benzylguanine ([9]; patients C & E) | sensitization of GM-CFCs in human bone marrow samples to the toxic effects of temozolomide ([9]; three samples tested (BeG: all three; B.4205: two of these), Fig. 14, in words) | IC50 [6] [µM] |
| --- | --- | --- | --- | --- | --- | --- | --- | --- | --- | --- | --- | --- | --- | --- | --- | --- | --- | --- |
| Nc1nc(OCc2ccco2)c2nc[nH]c2n1 [B.4203, O^6-furfurylguanine] | 5.7 | 2.6 | 2.0 | 2.5 | ≥ 100 | > 100 | ≥ 100 | as susceptible | 0.06 |  |  |  |  |  |  |  |  |  |
| Nc1nc(OCc2cccs2)c2nc[nH]c2n1 [B.4205, O^6-thenylguanine] | 8.0 | 8.4 | 2.8 | 3.5 |  |  | ≥ 100 | more sensitive than V79 cells |  | more effective than BeG | equally effective | 2.3 | as effective as BeG | comparable to 0^6-benzylguanine (BeG) | no differential | smaller sensitization effect than 0^6-benzylguanine | little or no sensitization | 0.03 |
